In brackets after ≈: the same amount, converted by molar mass.

The text below walks through data of patent publication US4921850A, “3-propenylcephem derivative” (Eisai Co., Ltd., priority 1986, dated 1990).

What all share (format): cell-based
Assay [1] concerns Staph. aureus E 31106. Kind of assay: Comparison test of anti-bacterial activity (MIC). The conditions noted are these: Staphylococcus aureus, E31106, 18 h, comparison R1 = CH2F vs CH3. On the procedure: (§1) MIC (μg/ml) were determined by an agar dilution method [Chemotherapy (Japan), 29, 76-79, 1981]. Overnight cultures of the bacterial strains in Mueller-Hinton broth were diluted to final concentration of about 10^6 CFU/ml, and 5 μl of each bacterial suspension was spotted onto Mueller-Hinton agar plates that contained twofold serial dilutions of antibiotics. MICs were measured after incubation for 18 hours at 37° C.
(§2) Comparison tests of the anti-bacterial activities were conducted between the compounds of the following formula according to the present invention and the corresponding control compounds wherein R1 represents methyl group. Measurements of MIC are the same as described in the above item 2.

The test system of assay [2] is Enterobacter cloacae E-74. As to the kind of experiment: Comparison test of anti-bacterial activity (MIC). The conditions noted are these: E74, 18 h, comparison R1 = CH2F vs CH3. On the procedure: as §1, §2
In assay [3] the test system is Xantomonas maltophilia E 04004. As to the kind of experiment: Comparison test of anti-bacterial activity (MIC). The settings on record: 18 h, comparison R1 = CH2F vs CH3. On the procedure: as §1, §2
Assay [4] has as its system Proteus vulgaris E 08042. Kind of assay: Comparison test of anti-bacterial activity (MIC). The conditions noted are these: E08042, 18 h, comparison R1 = CH2F vs CH3. On the procedure: as §1, §2
The test system of assay [5] is Escher. coli NIHJ. Kind of assay: Anti-bacterial activity (MIC), agar dilution. The settings on record: Escherichia coli, 18 h, Escher. coli NIHJ; agar dilution, about 10^6 CFU/ml, 18 hours, 37° C.; read-out: MIC. Put shortly: (§3)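 Overnight Mueller-Hinton broth cultures were diluted to about 10^6 CFU/ml and spotted onto Mueller-Hinton agar plates carrying twofold serial dilutions of antibiotic. After 18 hours at 37° C, MIC (μg/ml) was determined by agar dilution.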
(In agar dilution the substance is mixed into plates at graded concentrations.)

For assay [6], the system named is Staph. aureus 209-P. As to the kind of experiment: Anti-bacterial activity (MIC), agar dilution. The settings on record: Staphylococcus aureus, 209P, 18 h, Staph. aureus 209-P; agar dilution, about 10^6 CFU/ml, 18 hours, 37° C.; read-out: MIC. The method, boiled down: as §3
In assay [7] the test system is Kleb. pneumoniae EK-6. As to the kind of experiment: Anti-bacterial activity (MIC), agar dilution. The conditions noted are these: Klebsiella pneumoniae, EK6, 18 h, Kleb. pneumoniae EK-6; agar dilution, about 10^6 CFU/ml, 18 hours, 37° C.; read-out: MIC. Put shortly:
as §3

For assay [8], the system named is Pseud. aeruginosa EP-01. As to the kind of experiment: Anti-bacterial activity (MIC), agar dilution. The settings on record: Pseudomonas aeruginosa, EP01, 18 h, Pseud. aeruginosa EP-01; agar dilution, about 10^6 CFU/ml, 18 hours, 37° C.; read-out: MIC. Put shortly:
as §3

For assay [9], the system named is Morganella morganii EP-14. Kind of assay: Anti-bacterial activity (MIC), agar dilution. The settings on record: Morganella morganii, EP14, 18 h, about 10^6 CFU/ml, 37° C., read-out: MIC. Put shortly: as §3
Assay [10] has as its system Ser. marcescens ES-75. As to the kind of experiment: Anti-bacterial activity (MIC), agar dilution. The conditions noted are these: Serratia marcescens, ES75, 18 h, Ser. marcescens ES-75; agar dilution, about 10^6 CFU/ml, 18 hours, 37° C.; read-out: MIC. Put shortly:
as §3

A word on the MIC: it is the lowest concentration that inhibits growth of the organism. Take `C[N+]1(C/C=C/C2=C(C(=O)[O-])N3C(=O)[C@@H](NC(=O)/C(=N\OCF)c4nsc(N)n4)[C@H]3SC2)CCCC1` [Example 126, 7β-[2-(5-Amino-1,2,4-thiadiazol-3-yl)-(Z)-2-fluoromethoxyiminoacetamido]-3-[(E)-3-(1-methylpyrrolidinio)-1-propen-1-yl]-3-cephem-4-carboxylate]: the MIC was 1.56 µg/mL (≈ 2.97 µM) in assay [1]; 0.05 µg/mL (≈ 0.0951 µM) in [2]; 12.5 µg/mL (≈ 23.8 µM) in [3]; 0.05 µg/mL (≈ 0.0951 µM) in [4]; ≤ 0.025 µg/mL in [5]; 0.1 µg/mL (≈ 0.19 µM) in assay [6]. Moreover, the MIC is ≤ 0.025 µg/mL in assay [7], 0.8 µg/mL (≈ 1.52 µM) in assay [8], ≤ 0.025 µg/mL in [9] and 0.05 µg/mL (≈ 0.0951 µM) in assay [10].
For `NC(=O)c1cc[n+](C/C=C/C2=C(C(=O)[O-])N3C(=O)[C@@H](NC(=O)/C(=N\OCF)c4nsc(N)n4)[C@H]3SC2)cc1` [Example 127, 7β-[2-(5-Amino-1,2,4-thiadiazol-3-yl)-(Z)-2-fluoromethoxyiminoacetamido]-3-[(E)-3-(4-carbamoylpyridinio)-1-propen-1-yl]-3-cephem-4-carboxylate], the MIC in assay [1] was 3.13 µg/mL (≈ 5.56 µM); in assay [2], ≤ 0.025 µg/mL; in assay [3], 6.25 µg/mL (≈ 11.1 µM); in assay [4], ≤ 0.025 µg/mL; in [5], ≤ 0.025 µg/mL; in [6], 0.1 µg/mL (≈ 0.178 µM). Besides, the MIC in assay [7] was ≤ 0.025 µg/mL; in assay [8], 0.8 µg/mL (≈ 1.42 µM); in assay [9] it was ≤ 0.025 µg/mL; in assay [10] it was 0.05 µg/mL (≈ 0.0889 µM).
For the molecule `C[N+](C)(C)C/C=C/C1=C(C(=O)[O-])N2C(=O)[C@@H](NC(=O)/C(=N\OCF)c3nsc(N)n3)[C@H]2SC1` [Example 128, 7β-[2-(5-Amino-1,2,4-thiadiazol-3-yl)-(Z)-2-fluoromethoxyiminoacetamido]-3-[(E)-3-(trimethylammonio)-1-propen-1-yl]-3-cephem-4-carboxylate], the minimum inhibitory concentration (MIC) in assay [1] was 3.13 µg/mL (≈ 6.27 µM); in assay [2], 0.1 µg/mL (≈ 0.2 µM); in assay [3], 25 µg/mL (≈ 50 µM); in [4], 0.1 µg/mL (≈ 0.2 µM); in assay [5], 0.05 µg/mL (≈ 0.1 µM); in assay [6], 0.2 µg/mL (≈ 0.4 µM). In addition, the MIC in [7] was determined as 0.05 µg/mL (≈ 0.1 µM); in assay [8], 0.8 µg/mL (≈ 1.6 µM); in assay [9], 0.05 µg/mL (≈ 0.1 µM); in assay [10], 0.1 µg/mL (≈ 0.2 µM).
